What follows are compounds tested against ROCK2 (Homo sapiens (Human), UniProt O75116).
ROCK2, sequence (O75116 whole entry, species assumed): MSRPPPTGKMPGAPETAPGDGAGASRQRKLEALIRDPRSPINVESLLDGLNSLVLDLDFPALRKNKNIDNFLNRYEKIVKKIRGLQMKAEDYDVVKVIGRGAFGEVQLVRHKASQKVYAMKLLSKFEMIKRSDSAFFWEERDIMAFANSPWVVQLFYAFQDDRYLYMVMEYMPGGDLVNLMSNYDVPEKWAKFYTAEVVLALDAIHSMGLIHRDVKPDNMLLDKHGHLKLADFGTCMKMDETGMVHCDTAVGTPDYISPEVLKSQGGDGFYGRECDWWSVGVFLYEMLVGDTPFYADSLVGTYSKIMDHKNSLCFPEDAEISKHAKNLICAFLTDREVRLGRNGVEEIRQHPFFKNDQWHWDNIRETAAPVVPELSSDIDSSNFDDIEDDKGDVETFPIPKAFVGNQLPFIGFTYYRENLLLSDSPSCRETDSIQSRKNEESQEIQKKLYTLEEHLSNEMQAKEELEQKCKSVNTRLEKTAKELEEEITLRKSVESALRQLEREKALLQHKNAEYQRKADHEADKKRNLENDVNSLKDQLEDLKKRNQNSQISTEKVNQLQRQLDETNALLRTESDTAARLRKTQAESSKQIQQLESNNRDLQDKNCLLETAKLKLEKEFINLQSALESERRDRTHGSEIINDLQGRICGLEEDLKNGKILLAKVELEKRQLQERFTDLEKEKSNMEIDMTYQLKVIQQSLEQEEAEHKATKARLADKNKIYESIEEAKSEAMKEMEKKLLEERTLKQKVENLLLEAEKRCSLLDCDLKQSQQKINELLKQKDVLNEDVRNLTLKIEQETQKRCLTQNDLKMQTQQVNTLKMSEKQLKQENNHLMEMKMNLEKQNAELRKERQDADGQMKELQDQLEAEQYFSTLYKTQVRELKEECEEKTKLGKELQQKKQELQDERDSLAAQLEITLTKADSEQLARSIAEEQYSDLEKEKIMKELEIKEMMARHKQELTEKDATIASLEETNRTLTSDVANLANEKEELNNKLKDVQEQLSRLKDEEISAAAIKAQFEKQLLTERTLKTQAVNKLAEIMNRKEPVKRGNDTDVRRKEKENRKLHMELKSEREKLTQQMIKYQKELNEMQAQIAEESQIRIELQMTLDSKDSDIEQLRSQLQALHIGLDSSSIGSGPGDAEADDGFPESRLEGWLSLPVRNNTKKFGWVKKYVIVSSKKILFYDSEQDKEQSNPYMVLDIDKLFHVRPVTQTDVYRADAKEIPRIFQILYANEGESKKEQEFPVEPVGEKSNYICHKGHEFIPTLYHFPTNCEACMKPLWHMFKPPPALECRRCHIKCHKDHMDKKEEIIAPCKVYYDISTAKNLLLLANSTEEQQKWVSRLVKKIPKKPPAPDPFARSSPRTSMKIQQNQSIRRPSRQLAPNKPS
In the case of `COc1ccc(F)c(NC2CCN(c3ccc(-c4cn[nH]c4)c(F)c3)C2=O)c1` (single isomer, unassigned) [Example 335, 1-(3-fluoro-4-(1H-pyrazol-4-yl)phenyl)-3-((2-fluoro-5-methoxyphenyl)amino) pyrrolidin-2-one], the IC50 is reported as 10 to 100 nM. For `COc1cc(NC2CCN(c3ccc(-c4cn[nH]c4)nc3)C2=O)ccc1F` (single isomer, unassigned) [Example 300, 1-(6-(1H-pyrazol-4-yl)pyridin-3-yl)-3-((4-fluoro-3-methoxyphenyl)amino)pyrrolidin-2-one], the IC50 was 10 to 100 nM. With `COc1cccc(NC2CCN(c3ccc(-c4cn[nH]c4)c(OC)c3)C2=O)c1` (single isomer, unassigned) [Example 75, 1-(3-methoxy-4-(1H-pyrazol-4-yl)phenyl)-3-((3-methoxyphenyl)amino)pyrrolidin-2-one] the IC50 was less than 10 nM. For `COc1ccc(NC2CCN(c3ccc(-c4cn[nH]c4)c(OC)c3)C2=O)c(F)c1` (single isomer, unassigned) [Example 153, 3-((2-fluoro-4-methoxyphenyl)amino)-1-(3-methoxy-4-(1H-pyrazol-4-yl)phenyl) pyrrolidin-2-one], the IC50 was 100 to 2200 nM. For `O=C1C(Nc2cccc(OC(F)F)c2)CCN1c1ccc(-c2cn[nH]c2)c(F)c1` (single isomer, unassigned) [Example 356, 3-((3-(difluoromethoxy)phenyl)amino)-1-(3-fluoro-4-(1H-pyrazol-4-yl)phenyl) pyrrolidin-2-one], the IC50 was 10 to 100 nM. Compound `COc1ccc(NC2CCN(c3ccc(-c4cn[nH]c4)c(OC)c3)C2=O)cc1F` (single isomer, unassigned) [Example 142, 3-((3-fluoro-4-methoxyphenyl)amino)-1-(3-methoxy-4-(1H-pyrazol-4-yl)phenyl) pyrrolidin-2-one] has an IC50 of 100 to 2200 nM. Compound `COc1cccc(NC2CCN(c3ccc(-c4cn[nH]c4)cn3)C2=O)c1` (single isomer, unassigned) [Example 86, 1-(5-(1H-pyrazol-4-yl)pyridin-2-yl)-3-((3-methoxyphenyl)amino)pyrrolidin-2-one] has an IC50 of less than 10 nM. `COc1cc(F)cc(NC2CCN(c3ccc(-c4cn[nH]c4)cc3)C2=O)c1` (single isomer, unassigned) [Example 27, 1-(4-(1H-pyrazol-4-yl)phenyl)-3-((3-fluoro-5-methoxyphenyl)amino)pyrrolidin-2-one] gave an IC50 of less than 10 nM. Work on `Cc1nc(N2CCC(Nc3cccc(OCC4CC4)c3)C2=O)ccc1-c1cn[nH]c1` (single isomer, unassigned) [Example 191, 3-((3-(cyclopropylmethoxy)phenyl)amino)-1-(6-methyl-5-(1H-pyrazol-4-yl)pyridin-2-yl)pyrrolidin-2-one] yielded an IC50 of 10 to 100 nM. `COc1nc(N2CCC(Nc3cccc(OC(F)F)c3)C2=O)ccc1-c1cn[nH]c1` (single isomer, unassigned) [Example 221, 3-((3-(difluoromethoxy)phenyl)amino)-1-(6-methoxy-5-(1H-pyrazol-4-yl)pyridin-2-yl)pyrrolidin-2-one] was tested, and the IC50 was less than 10 nM. For `CCOc1cccc(NC2CCN(c3ccc(-c4cn[nH]c4)c(OC)n3)C2=O)c1` (single isomer, unassigned) [Example 219, 3-((3-ethoxyphenyl)amino)-1-(6-methoxy-5-(1H-pyrazol-4-yl)pyridin-2-yl)pyrrolidin-2-one], the IC50 was less than 10 nM. `COc1cc(NC2CCN(c3ccc(-c4cn[nH]c4)c(F)c3)C2=O)ccc1F` (single isomer, unassigned) [Example 333, 3-((4-fluoro-3-methoxyphenyl)amino)-1-(3-fluoro-4-(1H-pyrazol-4-yl)phenyl) pyrrolidin-2-one] was tested, and the IC50 was less than 10 nM. `COc1cccc(NC2CCN(c3ccc(-c4cn[nH]c4)c(F)c3)C2=O)c1` (single isomer, unassigned) [Example 46, 1-(3-fluoro-4-(1H-pyrazol-4-yl)phenyl)-3-((3-methoxyphenyl)amino)pyrrolidin-2-one] was tested, and the IC50 was less than 10 nM. For `COc1cc(F)cc(NC2CCN(c3ccc(-c4cn[nH]c4)cc3F)C2=O)c1` (single isomer, unassigned) [Example 339, 1-(2-fluoro-4-(1H-pyrazol-4-yl)phenyl)-3-((3-fluoro-5-methoxyphenyl)amino) pyrrolidin-2-one], the IC50 was 10 to 100 nM. Work on `COc1c(F)cccc1NC1CCN(c2ccc(-c3cn[nH]c3)cc2F)C1=O` (single isomer, unassigned) [Example 343, 3-((3-fluoro-2-methoxyphenyl)amino)-1-(2-fluoro-4-(1H-pyrazol-4-yl)phenyl) pyrrolidin-2-one] yielded an IC50 of 100 to 2200 nM. With `COc1cc(F)ccc1NC1CCN(c2ccc(-c3cn[nH]c3)c(OC)c2)C1=O` (single isomer, unassigned) [Example 144, 3-((4-fluoro-2-methoxyphenyl)amino)-1-(3-methoxy-4-(1H-pyrazol-4-yl)phenyl) pyrrolidin-2-one] the IC50 was 100 to 2200 nM. With `O=C1C(Nc2ccccc2)CCN1c1ccc(-c2cn[nH]c2)c(F)c1` (single isomer, unassigned) [Example 44, 1-(3-fluoro-4-(1H-pyrazol-4-yl)phenyl)-3-(phenylamino)pyrrolidin-2-one] the IC50 was less than 10 nM. `COc1cccc(NC2CCN(c3cc(F)c(-c4cn[nH]c4)cc3F)C2=O)c1` (single isomer, unassigned) [Example 354, 1-(2,5-difluoro-4-(1H-pyrazol-4-yl)phenyl)-3-((3-methoxyphenyl)amino)pyrrolidin-2-one] was tested, and the IC50 was 10 to 100 nM. For `COc1ccc(F)c(NC2CCN(c3ccc(-c4cn[nH]c4)cn3)C2=O)c1` (single isomer, unassigned) [Example 304, 1-(5-(1H-pyrazol-4-yl)pyridin-2-yl)-3-((2-fluoro-5-methoxyphenyl)amino)pyrrolidin-2-one], the IC50 was 10 to 100 nM. With `O=C1C(Nc2ccc3c(c2)OC(F)(F)O3)CCN1c1ccc(-c2cn[nH]c2)cc1` (single isomer, unassigned) [Example 54, 1-(4-(1H-pyrazol-4-yl)phenyl)-3-((2,2-difluorobenzo[d][1,3]dioxol-5-yl)amino)pyrrolidin-2-one] the IC50 was 100 to 2200 nM. Work on `COc1cccc(NC2CCN(c3cc(F)c(-c4cn[nH]c4)c(F)c3)C2=O)c1` (single isomer, unassigned) [Example 312, 1-(3,5-difluoro-4-(1H-pyrazol-4-yl)phenyl)-3-((3-methoxyphenyl)amino)pyrrolidin-2-one] yielded an IC50 of less than 10 nM. For `COc1cc(NC2CCN(c3ccc(-c4cn[nH]c4)cc3Cl)C2=O)ccc1F` (single isomer, unassigned) [Example 163, 1-(2-chloro-4-(1H-pyrazol-4-yl)phenyl)-3-((4-fluoro-3-methoxyphenyl)amino) pyrrolidin-2-one], the IC50 was 100 to 2200 nM. `COc1cccc(OC2CCN(c3ccc(-c4ccc5cn[nH]c5c4)c(OC)n3)C2=O)c1` (single isomer, unassigned) [Example 125, 1-(5-(1H-indazol-6-yl)-6-methoxypyridin-2-yl)-3-(3-methoxyphenoxy)pyrrolidin-2-one] showed an IC50 of 100 to 2200 nM. For `CNc1nc(N2CCC(Nc3cccc(OC)c3)C2=O)ccc1-c1cn[nH]c1` (single isomer, unassigned) [Example 254, 3-((3-methoxyphenyl)amino)-1-(6-(methylamino)-5-(1H-pyrazol-4-yl)pyridin-2-yl)pyrrolidin-2-one], the IC50 was 10 to 100 nM. `COc1ccc(N[C@@H]2CCN(c3ccc(-c4cn[nH]c4)cc3)C2=O)c(OC)c1` [Example 395, (R)-1-(4-(1H-pyrazol-4-yl)phenyl)-3-((2,4-dimethoxyphenyl)amino)pyrrolidin-2-one] showed an IC50 of 100 to 2200 nM.

— US10112929B2, “Lactams as inhibitors of rock” (BRISTOL-MYERS SQUIBB COMPANY, priority 2015, dated 2018)
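Also: rho kinase enzyme reaction halted with EDTA, phospho- and non-phospho peptide separated for read-out, kinase activity inhibition derived across a dose-response series, DMSO under 2%.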
